Patent US6288051A, “7 α-(5-methylaminopentyl)-estratrienes, process for their production, pharmaceutical preparations that contain these 7 α(5-methylaminopentyl)-estratrienes as well as their use for the production of pharmaceutical agents” (Schering Aktiengesellschaft, priority 1996, dated 2001)
Where two headings read alike, the source gives them in different places.

Legend:
[1] = test system: MXT breast neoplasm; test: Tumor-inhibiting effect on hormone-dependent MXT(+) breast cancer in mice; assay type: in vivo, mouse; settings: oral
Source text: 2.1 MXT breast neoplasm in mice 2.1. Tumor-Inhibiting Effect on Hormone-Dependent […] Cancer in Mice Principle of the Method The MXT(+)-breast cancer is an estrogen- and progesterone receptor-positivetumor that was originally produced by induction with urethane and is then transplanted onward in series. Growth can be inhibited by ovariectomy and antiestrogens. This model is therefore very well suited for studying the tumor-inhibiting action of endocrinotherapeutic agents. Execution of the Test Animal Material Adult, female BDFI-mice (7-10 weeks old; weight 18-21 g). Standard care conditions. Formulation and Administration of Test Substances The test substances are dissolved in ethanol+peanut oil (1+9), and the one-time dose is administered at a volume of 0.1 ml s.c. In the case of oral administration, the test substance is dissolved in ethanol+peanut oil (1+9), and the daily dose is administered at a volume of 0.1 ml. The treatment begins either immediately after tumor implantation or 2-3 weeks thereafter (treatment of established tumors). […] Tumor growth is determined by ascertaining the tumor surface area with the aid of a sliding gauge. The tumor surface area is calculated from the product of the longest diameter and the tumor diameter that is perpendicular to said longest diameter. […] Analysis Average values ±SE of tumor surface areas are determined. […]

[2] = test system: NMU-induced breast cancer; test: NMU-induced breast cancer in rats; assay type: in vivo, rat
Source text: 2.3 NNMU^+ -induced breast cancer in rats
2.3 Influencing of Tumor Growth in the NMU^+ Model in Rats (MM Tumor Model)
^+ N-Methyl-N-nitrosourea
The growth of the NMU-induced breast neoplasm of rats is largely dependent on estrogens and, in contrast to the DMBA tumor model, less on prolactin. Active antiestrogens, aromatase inhibitors, and antigestagens lead to the inhibition of tumor growth. Substances with antigonadotrophic properties also exert a tumor-inhibiting action.
Female rats (Sprague-Dawley)
NMU=i.v., test substance: s.c./p.o. […]
p.o. = 0.1 or 0.2 ml/100 g/d in ethanol + peanut oil (1 + 9)
s.c. = 0.1 ml/100 g/d in ethanol + peanut oil (1 + 9)
The animals receive 50 mg/kg of NMU i.v. on a one-time basis. Then, the animals are examined once a week by palpation for tumor development. About 6-8 weeks after NMU treatment, one or more tumors develop per animal. At a minimum size of 150 mm^2 /tumor/animal, daily treatment (7× a week) begins with the test substance, and the determination of body weight+tumor size is done (with the aid of a sliding gauge) (1×/week).
(§1) The values that are found are tested for significance in the Dunnett Test and are plotted graphically.

[3] = test system: DMBA-induced breast cancer; test: DMBA-induced breast cancer in rats; assay type: in vivo, rat; settings: for inhibition of tumor growth: oral, 3 mg/kg/day (FIG. 4)
Source text: 2.2 DMBA*-induced breast cancer in rats
2.2. Influencing Tumor Growth in the […] Model in Rats (DMBA Tumor Model)
*9,10-Dimethyl-1,2-benanthracene
The growth of the DMBA-induced breast neoplasm of rats is largely dependent on estrogens and prolactin. Active antiestrogens, antigestagens, and aromatase inhibitors result in the inhibition of tumor growth, and substances that have antigonadotropic and androgenic properties also exert a tumor-inhibiting action.
45-47-day-old female rats (Sprague-Dawley, breeder ZiH or Mollegard), 8-10 animals per group.
The animals receive 10 mg of DMBA orally on a one-time basis. Then, the animals are examined weekly by palpation for tumor development. Six to 10 weeks after DNBA treatment, approximately 1 to 10 tumors develop per animal. The tumor size is determined once a week with the aid of a sliding gauge. If at least one tumor has reached a specific size (150 mm^2 of tumor surface area), an ovariectomy is performed on the animals, or the treatment of the animals with the test substance begins. The treatment is carried out in most cases daily for a period of about 28 days (for details on execution, see Test Plan). The tumor size is subsequently determined once a week.
The total tumor size per animal is determined before the beginning of treatment (initial values). For each group, the average values of the percentage changes of the tumor size relative to the initial value are then calculated. In addition, the percentage of animals per group is determined, whose tumors in each case: (1) have totally disappeared (total regression); partially disappeared (partial regression); (3) are unchanged (no change); or (4) are further enlarged (enlargement).
as §1

[4] = test system: uterus growth (estradiol benzoate); test: Uterus growth test in infantile rats (antiestrogenic action); assay type: in vivo, rat; settings: differences highly significant (FIG. 1 and 2)
Source text: 1. Uterus growth test in infantile rats, s.c. and p.o. (test for antiestrogenic action)
1. Uterus Growth Test in Infantile Rats (Antiestrogenic Action)
In rodents, the uterus reacts to the administration of estrogens with an increase in weight (both proliferation and water retention). This growth is to be inhibited in a dose-dependent-manner by simultaneous administration of compounds with an antiestrogenic action.
Infantile female rats at a weight of 35-45 g at the beginning of the test, 5-6 animals per dose.
Formulation and Administration of the Substances: […]
Both for s.c. and for p.o. administration, the substances are dissolved in 1 part of ethanol (E) and made up with 9 parts of peanut oil (EO).
Young rats that have just been weaned from their mothers are delivered one day before the beginning of treatment for acclimatization and are immediately supplied with food--still in the animal cage. […] The wet weights (without contents) are determined from the prepared uteri. […]
For each group, the average values with standard deviation (X+SD), as well as the significance of the differences compared to the control group (EB) in the Dunnett Test (p<0.05), are determined from the relative organ weights (mg/100 g of body weight). […] The relative effects of the test substances are determined by covariance and regression analysis.

[5] = target: T1, human estrogen receptor (Homo sapiens, UniProt P03372); test: Transactivation assay, HeLa cells transfixed with human estrogen receptor-expression vector (HEGO) and Vit-TK-CAT reporter gene; assay type: cell-based
T1 construct: expressed in transfected cells; host or cells: HeLa
T1 sequence (P03372 1-595): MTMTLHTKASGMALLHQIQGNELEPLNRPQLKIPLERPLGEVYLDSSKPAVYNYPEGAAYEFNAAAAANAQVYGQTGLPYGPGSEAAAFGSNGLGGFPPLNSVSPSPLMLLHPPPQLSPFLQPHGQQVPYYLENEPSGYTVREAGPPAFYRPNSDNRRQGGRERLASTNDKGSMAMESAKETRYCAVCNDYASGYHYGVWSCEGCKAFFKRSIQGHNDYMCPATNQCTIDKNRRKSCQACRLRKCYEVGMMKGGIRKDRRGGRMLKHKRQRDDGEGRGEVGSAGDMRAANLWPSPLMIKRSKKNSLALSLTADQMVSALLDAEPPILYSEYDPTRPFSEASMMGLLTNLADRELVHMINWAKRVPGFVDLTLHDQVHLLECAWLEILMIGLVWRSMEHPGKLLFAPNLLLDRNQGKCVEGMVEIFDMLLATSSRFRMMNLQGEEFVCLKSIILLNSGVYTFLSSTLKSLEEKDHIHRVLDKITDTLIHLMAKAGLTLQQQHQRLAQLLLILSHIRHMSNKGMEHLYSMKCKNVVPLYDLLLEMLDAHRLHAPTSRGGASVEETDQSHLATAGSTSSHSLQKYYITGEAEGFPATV
Protocol: (§2) The antiestrogenic action of the compounds according to the invention was determined in transactivation assays [Demirpence, E.; Duchesne M.-J.; Badia, E.; Gagne, D. and Pons, M.: MVLN Cells: A Bioluminescent MCF-7-Derived Cell Line to Study the Modulation of Estrogenic Activity; J. Steroid. Molec. Biol. Vol. 46, No. 3, 355-364 (1993) as well as Berry, M.; Metzeger D.; Chambon, P.: Role of the Two Activating Domains of the Estrogen Receptor in the Cell-type and Promoter-context Dependent Agonistic Activity of the Anti-estrogen 4-Hydroxytamoxifen; The EMBO Journal Vol. 9, 2811-2818 (1990)].
The HeLa cells are transfixed with human estrogen receptor-expression vector (HEGO) and Vit-TK-CAT reporter genes, and the MVLN cells are transfixed with reporter gene Vit-TK-LUC: […]

[6] = test system: MVLN cells; test: Transactivation assay, MVLN cells transfixed with reporter gene Vit-TK-LUC; assay type: cell-based; settings: Homo sapiens, read-out: IC50 [nM] MVLN cells
Protocol: as §2
The IC50 values for the new compounds lie in the nanomolar range. […] The HeLa cells are transfixed with human estrogen receptor-expression vector (HEGO) and Vit-TK-CAT reporter genes, and the MVLN cells are transfixed with reporter gene Vit-TK-LUC: […]

Structure (SMILES): CN(CCCCC[C@@H]1Cc2cc(O)ccc2[C@H]2CC[C@]3(C)[C@@H](O)CC[C@H]3[C@H]12)CCCSCCCC(F)(F)C(F)(F)F [Example 1, 7α-{5-[N-Methyl-N-3-(4,4,5,5,5-pentafluoropentylthio)-propylamino]-pentyl}-estra-1,3,5(10)-triene-3,17β-diol]
- inhibition of tumor growth ([1]; 14 days of treatment, 10 mg/kg/day (FIG. 3)): inhibits tumor growth as strongly as an ovariectomy
- activity compared to 7α-[9-(4,4,5,5,5-pentafluoropentanesulfinyl)-nonyl]-estra-1,3,5(10)-triene-3,17β-diol ([1]; MXT, 14 days, 10 mg/kg/day): more strongly active
- activity compared to 7α-[9-(4,4,5,5,5-pentafluoropentanesulfinyl)-nonyl]-estra-1,3,5(10)-triene-3,17β-diol ([2]; NMU, oral): clearly more strongly active
- inhibition of tumor growth ([2]; oral, 10 mg/kg/day): complete inhibition of tumor growth
- inhibition of tumor growth, dose dependence ([2]; orally administered (FIG. 5)): inhibits tumor growth in a dose-dependent manner
- activity compared to tamoxifen (TAM) ([3]; DMBA, oral (FIG. 4)): even more strongly active than tamoxifen (TAM)
- inhibition of tumor growth [3]: completely inhibits tumor growth (no growth)
- relative antiestrogenic activity vs 7α-[9-(4,4,5,5,5-pentafluoropentanesulfinyl)-nonyl]-estra-1,3,5(10)-triene-3,17β-diol ([4]; oral administration): 4.7 times
- relative antiestrogenic activity vs 7α-[9-(4,4,5,5,5-pentafluoropentanesulfinyl)-nonyl]-estra-1,3,5(10)-triene-3,17β-diol ([4]; subcutaneous administration): 5.4 times
- IC50 [5]: 0.3 nM
- IC50 ([6]; MVLN): 1 nM

Structure (SMILES): CN(CCCCC[C@@H]1Cc2cc(O)ccc2[C@H]2CC[C@@]3(C)[C@@H](CC[C@]3(C)O)[C@H]12)CCCSCCCC(F)(F)C(F)(F)F [Example 2, 17α-Methyl-7α-{5-[N-methyl-N-3-(4,4,5,5,5-pentafluoropentyl-thio)-propylamino]-pentyl}-estra-1,3,5(10)-triene-3,17β-diol]
- IC50 [5]: 0.2 nM
- IC50 ([6]; MVLN): 0.6 nM

Structure (SMILES): C#C[C@]1(O)CC[C@H]2[C@@H]3[C@H](CCCCCN(C)CCCSCCCC(F)(F)C(F)(F)F)Cc4cc(O)ccc4[C@H]3CC[C@@]21C [Example 3, 17α-Ethinyl-7α-{5-[N-methyl-N-3-(4,4,5,5,5-pentafluoropentylthio)-propylamino]-pentyl}-estra-1,3,5(10)-triene-3,17β-diol]
- IC50 [5]: 1 nM
- IC50 ([6]; MVLN): 0.6 nM

Structure (SMILES): CN(CCCCC[C@@H]1Cc2cc(O)ccc2[C@H]2CC[C@]3(C)[C@@H](O)CC[C@H]3[C@H]12)CCS(=O)(=O)CCCC(F)(F)C(F)(F)F [Example 4, 7α-{5-[N-Methyl-N-2-(4,4,5,5,5-pentafluoropentanesulfonyl)-ethylamino]-pentyl}-estra-1,3,5(10)-triene-3,17β-diol]
- IC50 [5]: 0.16 nM
- IC50 ([6]; MVLN): 1.3 nM

Structure (SMILES): CN(CCCCC[C@@H]1Cc2cc(O)ccc2[C@H]2CC[C@]3(C)[C@@H](O)CC[C@H]3[C@H]12)CCCS(=O)(=O)CCCC(F)(F)C(F)(F)F [Example 5, 7α-{5-[N-Methyl-N-3-(4,4,5,5,5-pentafluoropentanesulfonyl)-propylamino]-pentyl}-estra-1,3,5(10)-triene-3,17β-diol]
- IC50 [5]: 0.3 nM
- IC50 ([6]; MVLN): 0.66 nM

Structure (SMILES): CN(CCCCC[C@@H]1Cc2cc(O)ccc2[C@H]2CC[C@]3(C)[C@@H](O)CC[C@H]3[C@H]12)CCC[S+]([O-])CCCC(F)(F)C(F)(F)F (stereo partly drawn) [Example 6, 7α-{5-[N-Methyl-N-3-(4,4,5,5,5-pentafluoropentanesulfinyl)-propylamino]-pentyl}-estra-1,3,5(10)-triene-3,17β-diol]
- IC50 [5]: 0.1 nM
- IC50 ([6]; MVLN): 1 nM

Structure (SMILES): C[C@]12CC[C@@H]3c4ccc(O)cc4C[C@@H](CCCCCCCCC[S+]([O-])CCCC(F)(F)C(F)(F)F)[C@H]3[C@@H]1CC[C@@H]2O (stereo partly drawn) [Reference, 7α-[9-(4,4,5,5,5-pentafluoropentanesulfinyl)-nonyl]-estra-1,3,5(10)-triene-3,17β-diol, reference compound]
- inhibition of tumor growth [3]: only a slight action
- IC50 ([6]; MVLN cells, Vit-TK-LUC): 6 nM
